Patent US20230134986A1, “GLUCOSE TRIPTOLIDE CONJUGATES AND USES THEREOF” (The Johns Hopkins University, priority 2020, published 2023)

Assays:
PC3 cells = experiment: PC3 proliferation under hypoxia or normoxia ([3H]-thymidine incorporation); format: cell-based, human; settings: for IC50: Homo sapiens, PC-3, 48 h, 48 h post treatment
Procedure: Proliferation and viability assays. [^3H]-thymidine incorporation. HEK293T cells (10,000 cells/well) were seeded into 96-well plates then cultured in DMEM plus 10% FBS and 1% penicillin/streptomycin at 37° C. with 5% CO2 overnight. Drugs were added at indicated concentrations and incubation was continued for an additional 24 h. For hypoxia, PC3 (5,000 cells/well) were exposed to 1% O2 (Airgas) in a humidified hypoxia chamber (Billups-Rothenberg) in 37° C. for 48 h prior to drug exposure for 48 h. Treated cells were then pulsed using an aliquot of 1 μCi of [^3H]-thymidine (Perkin Elmer) per well for an additional 6 h. Radiolabelled cells were harvested onto a printed Filtermat A glass fiber filter (Perkin Elmer) using a Tomtec Harvester 96 Mach III M. Betaplate Scint (Perkin Elmer) scintillation fluid was added to radiolabelled filters followed by scintillation counting on Microbeta2 LumiJET Microplate Counter (Perkin Elmer).

[1] = system: RPB1 (catalytic subunit of RNAPII); experiment: RPB1 (RNAPII) degradation in HeLa cells, immunostaining and western blot; format: cell-based, human; parameters: endogenous RNAPII (RPB1) level: unit of the concentration uncertain; settings: 1 (unit uncertain) compound 1, 24 h
Procedure: Western blot analysis. Whole cell lysates were prepared by adding lysis buffer [4% SDS, 20% glycerol, 10% 2-mercaptoethanol, 0.004% bromophenol blue, 0.125 M Tris-HCl (pH 6.8)] to the cell pellets for 30 minutes in ice followed by centrifugation at 12,000×g for 10 minutes then boiling for 5 minutes. For isolation of cytosolic and mitochondrial fractions of cytochrome C, cell pellets were resuspended in CLAMI buffer (250 mM sucrose, 70 mM KCl, […] digitonin in 1×PBS, protease inhibitor cocktail (1 tablet/10 ml CLAMI buffer)) then incubated on ice for 5 minutes. After centrifugation at 12,000×g for 5 minutes at 4° C., supernatant (cytoplasmic fraction) was collected and the pellet resuspended in lysis buffer as described above. Proteins were then separated by SDS-PAGE and transferred to nitrocellulose membranes (Bio-Rad). After blocking at room temperature for 1 h, membranes were incubated at 4′C overnight with the primary antibodies including anti-Rpb1 (Santa Cruz Biotechnology), anti-XPB (Biotechne), anti-Actin (Developmental Studies Hybridoma Bank), anti-GAPDH (Santa Cruz Biotechnology), anti-cytochrome C (Santa Cruz Biotechnology), anti-PARP1 (Santa Cruz Biotechnology), anti-cleaved caspase 3 (Cell Signaling Technology), anti-VDAC (ProteinTech), anti-HIF-1[…] (BD sciences), and anti-GLUT1 (Santa Cruz Biotechnology) antibodies followed by incubation with horseradish peroxidase-conjugated anti-mouse or anti-rabbit IgG (GE Healthcare) at room temperature for 2 hours. Antibody-protein complexes were detected using enhanced chemiluminescence (ECL) immunoblotting detection reagent (EMD Millipore).
Immunocytochemistry and cytochemistry. […] Glucose uptake was monitored by incubating cells in 200 μM 2-NBDG (ThermoFisher) for 6 hours prior to fixation. Fluorescence was observed under the Nikon Eclipse TE200 Inverted microscope (Nikon Instruments Inc., Melville, N.Y., USA). […] Rpb1 levels were measured using the MEASURE feature of ImageJ where all the background signals were subtracted from the intergrated density of nuclear Rpb1.

DLD-1 WT cells = experiment: DLD-1 WT proliferation under hypoxia or normoxia; format: cell-based; settings: Homo sapiens; WT DLD-1 cells, hypoxic conditions (1% oxygen)

CC(C)[C@]12O[C@H]1[C@@H]1O[C@]13[C@]1(O[C@H]1C[C@H]1C4=C(CC[C@@]13C)C(=O)OC4)[C@@H]2OC(=O)CCCO[C@@H]1OC(CO)[C@@H](O)C(O)C1O (stereo in doubt) [Compound 1]
IC50 (PC3 cells; PC3, hypoxic conditions (1% O2)): 0.081 µM | IC50 (PC3 cells; PC3, normoxic conditions (20% O2)): 0.427 µM | fold enhancement of anti-proliferative effect during hypoxia (PC3 cells; PC3, hypoxia versus normoxia): five-fold | endogenous RNAPII (RPB1) level [1]: depletes endogenous RNA polymerase II | IC50 (DLD-1 WT cells): 1.3 µM
